Assay results: PubChem BioAssay (NCI)
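Step 1: Grow cells in 96-well plates. Step 2: Expose to compound for 48 hours at 5 concentrations. Step 3: Interpolate endpoints linearly; if unreached, use highest concentration. GI50 is the concentration that inhibits growth by half. TGI: concentration producing complete growth inhibition.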

Key:
Test in all cases: NCI-60 cell line screen, 48 h
SNB-75 CNS = test system: SNB-75 CNS
SF-539 CNS = test system: SF-539 CNS
IGROV1 ovarian = test system: IGROV1 ovarian
COLO 205 colon = test system: COLO 205 colon
SW-620 colon = test system: SW-620 colon
OVCAR-5 ovarian = test system: OVCAR-5 ovarian
SN12C renal = test system: SN12C renal
M14 melanoma = test system: M14 melanoma
SF-295 CNS = test system: SF-295 CNS
XF 498 CNS = test system: XF 498 CNS
ACHN renal = test system: ACHN renal
SK-MEL-5 melanoma = test system: SK-MEL-5 melanoma
NCI-H460 lung = test system: NCI-H460 lung
HCC-2998 colon = test system: HCC-2998 colon
SK-MEL-2 melanoma = test system: SK-MEL-2 melanoma
CAKI-1 renal = test system: CAKI-1 renal
RXF-631 renal = test system: RXF-631 renal
HOP-18 NSCLC = test system: HOP-18 NSCLC
MOLT-4 leukemia = test system: MOLT-4 leukemia
RPMI-8226 leukemia = test system: RPMI-8226 leukemia
KM12 colon = test system: KM12 colon
786-0 renal = test system: 786-0 renal
EKVX NSCLC = test system: EKVX NSCLC
LOX IMVI melanoma = test system: LOX IMVI melanoma
HT29 colon = test system: HT29 colon
SNB-78 CNS = test system: SNB-78 CNS
OVCAR-8 ovarian = test system: OVCAR-8 ovarian
SF-268 CNS = test system: SF-268 CNS
NCI-H522 lung = test system: NCI-H522 lung
SK-OV-3 ovarian = test system: SK-OV-3 ovarian
NCI-H226 lung = test system: NCI-H226 lung
TK-10 renal = test system: TK-10 renal
SR leukemia = test system: SR leukemia
SNB-19 CNS = test system: SNB-19 CNS
KM20L2 colon = test system: KM20L2 colon
HOP-92 NSCLC = test system: HOP-92 NSCLC
A549 NSCLC = test system: A549 NSCLC
HCT-15 colon = test system: HCT-15 colon
CCRF-CEM leukemia = test system: CCRF-CEM leukemia
U251 CNS = test system: U251 CNS
HL-60(TB) leukemia = test system: HL-60(TB) leukemia
DMS 114 small cell lung = test system: DMS 114 small cell lung
OVCAR-3 ovarian = test system: OVCAR-3 ovarian
K-562 leukemia = test system: K-562 leukemia
A498 renal = test system: A498 renal
RXF 393 renal = test system: RXF 393 renal
LXFL 529 NSCLC = test system: LXFL 529 NSCLC
NCI-H23 lung = test system: NCI-H23 lung
M19-MEL melanoma = test system: M19-MEL melanoma
UACC-62 melanoma = test system: UACC-62 melanoma
DMS 273 small cell lung = test system: DMS 273 small cell lung
MALME-3M melanoma = test system: MALME-3M melanoma
SK-MEL-28 melanoma = test system: SK-MEL-28 melanoma
UACC-257 melanoma = test system: UACC-257 melanoma
HCT-116 colon = test system: HCT-116 colon
UO-31 renal = test system: UO-31 renal
HOP-62 NSCLC = test system: HOP-62 NSCLC
DLD-1 colon = test system: DLD-1 colon
OVCAR-4 ovarian = test system: OVCAR-4 ovarian

COc1ccc(C2CC(C)=Nc3c([nH]c(=S)[nH]c3=O)N2)cc1 (centres undefined)
TGI (SNB-75 CNS): 70.1 µM | TGI (SF-539 CNS): 50.8 µM | TGI (IGROV1 ovarian): 34.5 µM | TGI (COLO 205 colon): 32.7 µM | TGI (SW-620 colon): 19 µM | TGI (OVCAR-5 ovarian): 56.7 µM | TGI (SN12C renal): 36.7 µM | TGI (M14 melanoma): 37.4 µM | TGI (SF-295 CNS): 48.5 µM | TGI (XF 498 CNS): 59.4 µM | TGI (ACHN renal): 36.1 µM | TGI (SK-MEL-5 melanoma): 32.5 µM | TGI (NCI-H460 lung): 33.3 µM | TGI (HCC-2998 colon): 30.3 µM | TGI (SK-MEL-2 melanoma): > 100 µM | TGI (CAKI-1 renal): 65 µM | TGI (RXF-631 renal): > 100 µM | TGI (HOP-18 NSCLC): > 100 µM | TGI (MOLT-4 leukemia): 67.4 µM | TGI (RPMI-8226 leukemia): 50.3 µM | TGI (KM12 colon): 32 µM | TGI (786-0 renal): 31.2 µM | TGI (EKVX NSCLC): 50.2 µM | TGI (LOX IMVI melanoma): 34.4 µM | TGI (HT29 colon): 47.3 µM | TGI (SNB-78 CNS): > 100 µM | TGI (OVCAR-8 ovarian): 35.7 µM | TGI (SF-268 CNS): > 100 µM | TGI (NCI-H522 lung): 30.1 µM | TGI (SK-OV-3 ovarian): 38.2 µM | TGI (NCI-H226 lung): 44.6 µM | TGI (TK-10 renal): 58.1 µM | TGI (SR leukemia): 65 µM | TGI (SNB-19 CNS): 37.5 µM | TGI (KM20L2 colon): 31.7 µM | TGI (HOP-92 NSCLC): > 100 µM | TGI (A549 NSCLC): 40.4 µM | TGI (HCT-15 colon): 33 µM | TGI (CCRF-CEM leukemia): 54.4 µM | TGI (U251 CNS): 32.4 µM | TGI (HL-60(TB) leukemia): 40.1 µM | TGI (DMS 114 small cell lung): 38.8 µM | TGI (OVCAR-3 ovarian): 55.2 µM | TGI (K-562 leukemia): 34.4 µM | TGI (A498 renal): 36.9 µM | TGI (RXF 393 renal): 34.7 µM | TGI (LXFL 529 NSCLC): 30.5 µM | TGI (NCI-H23 lung): 55.6 µM | TGI (M19-MEL melanoma): 31 µM | TGI (UACC-62 melanoma): 32.1 µM | TGI (DMS 273 small cell lung): 35.9 µM | TGI (MALME-3M melanoma): > 100 µM | TGI (SK-MEL-28 melanoma): 60.5 µM | TGI (UACC-257 melanoma): 33.9 µM | TGI (HCT-116 colon): 30.1 µM | TGI (UO-31 renal): 32.8 µM | TGI (HOP-62 NSCLC): 68.5 µM

CCC[CH2][Ge]([CH2]CCC)([CH2]CCC)[O]C(=O)CCl
GI50 (SF-539 CNS): 1.65 µM | TGI (SF-539 CNS): 6.85 µM | GI50 (IGROV1 ovarian): 3.27 µM | TGI (IGROV1 ovarian): 18.4 µM | GI50 (COLO 205 colon): 10.4 µM | TGI (COLO 205 colon): 24 µM | GI50 (SW-620 colon): 4.19 µM | TGI (SW-620 colon): 17.4 µM | GI50 (OVCAR-5 ovarian): 12.3 µM | TGI (OVCAR-5 ovarian): 26.2 µM | GI50 (SN12C renal): 1.46 µM | TGI (SN12C renal): 19.3 µM | GI50 (M14 melanoma): 1.25 µM | TGI (M14 melanoma): 6.94 µM | GI50 (XF 498 CNS): 8.63 µM | TGI (XF 498 CNS): 21.1 µM | GI50 (ACHN renal): 2.71 µM | TGI (ACHN renal): 18.4 µM | GI50 (SK-MEL-5 melanoma): 0.305 µM | TGI (SK-MEL-5 melanoma): 3.36 µM | GI50 (NCI-H460 lung): 0.518 µM | TGI (NCI-H460 lung): 13.2 µM | GI50 (HCC-2998 colon): 1.32 µM | TGI (HCC-2998 colon): 7.63 µM | GI50 (SK-MEL-2 melanoma): 3.59 µM | TGI (SK-MEL-2 melanoma): 19.7 µM | GI50 (CAKI-1 renal): 5.26 µM | TGI (CAKI-1 renal): 20.3 µM | GI50 (HOP-18 NSCLC): 11.7 µM | TGI (HOP-18 NSCLC): 24 µM | GI50 (MOLT-4 leukemia): 0.856 µM | TGI (MOLT-4 leukemia): 29.9 µM | GI50 (KM12 colon): 1.4 µM | TGI (KM12 colon): 15.9 µM | GI50 (EKVX NSCLC): 1.18 µM | TGI (EKVX NSCLC): 16.2 µM | GI50 (LOX IMVI melanoma): 1.16 µM | TGI (LOX IMVI melanoma): 3.52 µM | GI50 (HT29 colon): 0.628 µM | TGI (HT29 colon): 11.5 µM | GI50 (OVCAR-8 ovarian): 5.19 µM | TGI (OVCAR-8 ovarian): 22 µM | GI50 (SF-268 CNS): 10.2 µM | TGI (SF-268 CNS): 23.1 µM | GI50 (NCI-H522 lung): 0.214 µM | GI50 (SK-OV-3 ovarian): 5.2 µM | TGI (SK-OV-3 ovarian): 20.6 µM | GI50 (NCI-H226 lung): 14.1 µM | TGI (NCI-H226 lung): 31.5 µM | GI50 (TK-10 renal): 3.4 µM | TGI (TK-10 renal): 17.7 µM | GI50 (SR leukemia): 0.836 µM | TGI (SR leukemia): 68.5 µM | GI50 (SNB-19 CNS): 10.8 µM | TGI (SNB-19 CNS): 22.9 µM | GI50 (KM20L2 colon): 2.95 µM | TGI (KM20L2 colon): 23.5 µM | GI50 (HOP-92 NSCLC): 0.573 µM | TGI (HOP-92 NSCLC): 8.54 µM | GI50 (A549 NSCLC): 1.01 µM | TGI (A549 NSCLC): 17.3 µM | GI50 (HCT-15 colon): 0.546 µM | TGI (HCT-15 colon): 11.5 µM | GI50 (CCRF-CEM leukemia): 0.406 µM | TGI (CCRF-CEM leukemia): 17.9 µM | GI50 (U251 CNS): 0.889 µM | TGI (U251 CNS): 16.6 µM | GI50 (DLD-1 colon): 0.122 µM | TGI (DLD-1 colon): 15.7 µM | GI50 (DMS 114 small cell lung): 0.316 µM | TGI (DMS 114 small cell lung): 10.2 µM | GI50 (OVCAR-3 ovarian): 2.33 µM | TGI (OVCAR-3 ovarian): 16.3 µM | GI50 (K-562 leukemia): 0.879 µM | TGI (K-562 leukemia): 31.6 µM | GI50 (RXF 393 renal): 0.612 µM | TGI (RXF 393 renal): 3.56 µM | GI50 (LXFL 529 NSCLC): 1.98 µM | TGI (LXFL 529 NSCLC): 17.1 µM | GI50 (OVCAR-4 ovarian): 2.76 µM | TGI (OVCAR-4 ovarian): 21.5 µM | GI50 (NCI-H23 lung): 0.115 µM | TGI (NCI-H23 lung): 12.5 µM | GI50 (M19-MEL melanoma): 11.1 µM | TGI (M19-MEL melanoma): 23.2 µM | GI50 (UACC-62 melanoma): 1.07 µM | TGI (UACC-62 melanoma): 8.67 µM | GI50 (MALME-3M melanoma): 1.14 µM | TGI (MALME-3M melanoma): 12.5 µM | GI50 (SK-MEL-28 melanoma): 11.5 µM | TGI (SK-MEL-28 melanoma): 23.6 µM | GI50 (HCT-116 colon): 0.498 µM | TGI (HCT-116 colon): 13.3 µM | GI50 (UO-31 renal): 2.28 µM | TGI (UO-31 renal): 15.6 µM | GI50 (HOP-62 NSCLC): 1.89 µM | TGI (HOP-62 NSCLC): 9.23 µM
